Several values for one entry are separate records, joined by “and”; a condition that tells them apart may be missing. Identical values can stand only once. Like-named read-outs stand apart in the source and are kept apart here. Peptide text beside a SMILES is read from it.
Key:
[1] = test system: HT-22 cells; conditions: 20 mM Glu, 24 h
Experimental: HT-22 cells were cultured in DMEM medium with 10% fetal bovine serum (Gibco), 1% penicillin, and streptomycin (Gibco) at 37 °C. HT-22 cells were seeded at a density of 1 × 10^4 cells per well in 96-well plates and cultured in DMEM medium containing 10% fetal bovine serum and 1% penicillin–streptomycin at 37 °C with 5% CO2.

[2] = mouse, in vivo, po, 1000 mg/kg
[3] = mouse, in vivo, po
[4] = test system: Glu-induced HT-22 cells; assay: Neuroprotection in Glu-injured HT-22 cells (CCK-8 cell viability); conditions: for Cell viability(%) in Glu-induced HT-22 cells: Glu-only model (0 μM) 40.759±1.939; for cell viability in Glu-injured HT-22 cells: 50 μM (stated for cyclo(Hyp-Ala)), 4 h pretreatment, then 20 mM Glu 24 h, model group 40.759 ± 1.939%
[5] = test system: H2O2-induced HT-22 cells; assay: Neuroprotection in H2O2-injured HT-22 cells (CCK-8 cell viability); conditions: for Cell viability(%) in H2O2-induced HT-22 cells: compound 50 μM, H2O2-only model (0 μM) 48.645±0.347
[6] = Serum pharmacokinetics of CDPs after oral administration of DHG (targeted LC-MS, noncompartmental analysis); conditions: for AUC0–24h / C max / T max: serum, mice; for time remained detectable in serum: serum/blood after oral DHG, sampled to 24 h
[7] = Concentrations of CDPs in stomach, small intestine and cecum contents after oral DHG (targeted spatiotemporal metabolomics); assay type: in vivo, C57 mice
Experimental: The supernatant was dried using N2.
For gastrointestinal content analysis, freeze-dried powders (1 mg each) of stomach, small intestine, and cecum contents collected over the 0–24 h postadministration period were accurately weighed. The samples were extracted using the same pretreatment procedure as applied for DHG, namely, ultrasonication with 75% methanol for 30 min at room temperature, followed by centrifugation (13,500 rpm, 10 min). The supernatants were collected, dried under nitrogen, and reconstituted in 75% methanol for LC–MS analysis. Quantitation was performed against the 12-point calibration curves established above, ensuring consistency with the DHG quantitation workflow. Samples from different time points were analyzed individually to characterize the temporal distribution of CDPs within each gastrointestinal compartment.

[8] = FBMN analysis of short peptides in small intestine contents and serum after oral DHG; conditions: for time detected in serum (FBMN): time points 0.5-4 h after oral DHG; for Peptide signal (feature intensity) in the small intestine, 30 min / Peptide signal (feature intensity) in the small intestine, 60 min / Peptide signal (feature intensity) in the small intestine, 120 min / Peptide signal (feature intensity) in the small intestine, 240 min: small intestine contents, C57 mice, FBMN feature intensity, peptides smaller than 690 Da; for Peptide signal (feature intensity) in the small intestine, 30 min: 30 min after oral DHG; for Peptide signal (feature intensity) in the small intestine, 60 min: 60 min after oral DHG; for Peptide signal (feature intensity) in the small intestine, 120 min: 120 min after oral DHG; for Peptide signal (feature intensity) in the small intestine, 240 min: 240 min after oral DHG
[9] = design: method as in number not printed ("the literature reports"); conditions: mice; ref number not printed ("the literature reports"); cited from earlier work
[10] = design: method as in number not printed ("It was reported"); conditions: linear dipeptide; ref number not printed ("It was reported"); cited from earlier work
[11] = design: method as in number not printed ("A study in humans"); conditions: humans; ref number not printed ("A study in humans"); cited from earlier work

| AUC0–24h ([6]; oral DHG 1000 mg/kg) | C max ([6]; oral DHG 1000 mg/kg) [ng/mL] | T max ([6]; oral DHG 1000 mg/kg) [min] | Structure (SMILES) | Cell viability(%) in Glu-induced HT-22 cells ([4]; compound 25 μM) [%] | Cell viability(%) in Glu-induced HT-22 cells ([4]; compound 50 μM) [%] | Cell viability(%) in H2O2-induced HT-22 cells [5] [%] | further results |
| --- | --- | --- | --- | --- | --- | --- | --- |
|  |  |  | N[C@@H](CCC(=O)O)C(=O)O [Glu, Glutamate] |  |  |  | HT22 cell viability after Glu exposure [1]: 40–60% |
|  |  |  | O=C1N[C@@H](Cc2ccccc2)C(=O)N2CCC[C@@H]12 [cyclo(Pro-Phe)] |  |  |  | AUC0–24h [2]: 19.8164 ng·h/mL; C max [2]: 11.0670 ng/mL; T max [2]: 30 min; Peptide signal (feature intensity) in the small intestine, 30 min [3]: 2.06E+05; Peptide signal (feature intensity) in the small intestine, 60 min [3]: 0.00E+00; Peptide signal (feature intensity) in the small intestine, 120 min [3]: 2.49E+05; Peptide signal (feature intensity) in the small intestine, 240 min [3]: 2.18E+05 |
| 15547.0170 ng·h/mL | 4259.0300 | 60 | O=C1NCC(=O)N2CCC[C@@H]12 [cyclo(Gly-Pro)] | 54.865±0.079 | 58.506±3.833 | 53.985±7.459 | time remained detectable in serum [6]: 12 h |
| 7371.695 ng·h/mL and 7371.6951 ng·h/mL | 683.7471 | 120 | O=C1NCC(=O)N2CC(O)CC12 (centres unmarked) [cyclo(Hyp-Gly), cyclo(Gly-Hyp)] | 61.970±4.223 | 53.703±1.518 | 62.961±1.166 | concentration in the cecum ([7]; cecum contents at 8 h): 358.966 ng/g; cecum concentration at 8 h compared with peak levels in stomach and small intestine [7]: surpassed the peak levels observed in the stomach and small intestine; concentration in the small intestine ([7]; small intestine contents at 1 h): 354.578 ng/g; concentration in the stomach ([7]; stomach contents at 0.5 h): 265.229 ng/g; cell viability in Glu-injured HT-22 cells [4]: 63.703 ± 1.518 % cell viability; C max ([6]; oral DHG): 684 ng/mL |
| 2126.6252 ng·h/mL | 408.1371 | 60 | O=C1[C@@H]2C[C@@H](O)CN2C(=O)[C@@H]2CCCN12 [cyclo(Pro-Hyp)] | 53.105±7.712 |  | 67.606±2.468 | cecum concentration at 8 h compared with peak levels in stomach and small intestine [7]: surpassed the peak levels observed in the stomach and small intestine; cell viability in Glu-injured HT-22 cells [4]: 60.071 ± 3.101 % cell viability; time remained detectable in serum [6]: 24 h |
| 201.4294 ng·h/mL | 78.4401 | 30 | CC(C)[C@@H]1NC(=O)[C@@H]2CCCN2C1=O [cyclo(Pro-Val)] | 57.390±2.314 | 58.518±3.306 | 60.019±9.124 | time detected in serum (FBMN) [8]: 0.5 to 4 h |
| 71.9933 ng·h/mL | 24.5331 | 30 | CC[C@H](C)[C@@H]1NC(=O)[C@@H]2CCCN2C1=O [cyclo(Pro-Ile)] | 58.030±5.577 |  | 61.087±0.749 | cell viability in Glu-injured HT-22 cells [4]: 63.104 ± 2.519 % cell viability |
|  |  |  | O=C(O)[C@@H]1C[C@@H](O)CN1C(=O)[C@@H]1CCCN1 [Pro-Hyp] (HELM PEPTIDE1{P.[Hyp]}$$$$V2.0) |  |  |  | time to drop to basal levels [9]: ≤ 3 h |
| 2561.8131 ng·h/mL | 400.1572 | 60 | CC1NC(=O)C2CC(O)CN2C1=O (centres unmarked) [cyclo(Hyp-Ala)] | 54.245±1.226 |  |  | cell viability in Glu-injured HT-22 cells [4]: 70.614 ± 4.85 % cell viability; cell viability in H2O2-injured HT-22 cells ([5]; 50 μM, 4 h pretreatment, then 400 μM H2O2 24 h): 68.515 ± 2.290% |
| 487.9963 ng·h/mL | 197.3334 | 30 | O=C1[C@@H]2CCCN2C(=O)[C@@H]2CCCN12 [cyclo(Pro-Pro)] | 57.390±2.465 | 58.451±5.789 | 60.084±2.807 | time of decline / return to baseline in serum ([6]; serum after oral DHG): up to 8 h |
| 263.2271 ng·h/mL | 51.2931 | 60 | O=C1N[C@@H](Cc2ccccc2)C(=O)N2C[C@@H](O)C[C@@H]12 [cyclo(Phe-Hyp)] | 56.084±2.124 |  | 63.241±3.395 | cecum concentration at 8 h compared with peak levels in stomach and small intestine [7]: surpassed the peak levels observed in the stomach and small intestine; cell viability in Glu-injured HT-22 cells [4]: 60.206 ± 4.409 % cell viability; time detected in serum (FBMN) [8]: 0.5 to 4 h |
| 176.6962 ng·h/mL | 81.2502 | 30 | CC(C)CC1NC(=O)C2CCCN2C1=O (centres unmarked) [cyclo(Pro-Leu)] | 52.208±0.555 | 55.781±2.676 | 57.413±6.700 | time detected in serum (FBMN) [8]: 0.5 to 4 h |
| 301.1580 ng·h/mL | 110.4803 | 30 | CC(C)CC1NC(=O)C2CC(O)CN2C1=O (centres unmarked) [cyclo(Hyp-Leu)] | 53.193±5.729 | 53.590±3.417 | 60.867±9.188 | time detected in serum (FBMN) [8]: 0.5 to 4 h |
|  |  |  | NCC(=O)N1CCC[C@H]1C(=O)O [Gly-Pro] (H-Gly-Pro-OH) |  |  |  | time to decrease to a negligible level after oral administration [10]: ≤ 1 h; T max, C max, and AUC0–4h compared with cyclo(Gly-Pro) [11]: lower |
| 13.9981 ng·h/mL | 1.9830 | 30 | O=C1N[C@@H](Cc2cnc[nH]2)C(=O)N2CCC[C@@H]12 [cyclo(Pro-His), cyclo(His-Pro)] | 52.701±4.050 | 55.361±5.121 | 55.307±7689 |  |
|  |  |  | N[C@@H](Cc1cnc[nH]1)C(=O)N1CCC[C@H]1C(=O)O [His-Pro] |  |  |  | Peptide signal (feature intensity) in the small intestine, 30 min [8]: 4.26E+07; Peptide signal (feature intensity) in the small intestine, 60 min [8]: 5.51E+07; Peptide signal (feature intensity) in the small intestine, 120 min [8]: 0.00E+00; Peptide signal (feature intensity) in the small intestine, 240 min [8]: 8.49E+06 |
|  |  |  | CC(C)C[C@@H]1NC(=O)[C@H](Cc2ccccc2)NC1=O [cyclo(Leu-Phe)] |  |  |  | time detected in serum (FBMN) [8]: 0.5 to 4 h |
|  |  |  | CCC(C)C(N)C(=O)N1CCCC1C(=O)O (stereo not drawn) [Ile-Pro] (H-Ile-Pro-OH; configuration not given here) |  |  |  | Peptide signal (feature intensity) in the small intestine, 30 min [8]: 1.26E+07; Peptide signal (feature intensity) in the small intestine, 60 min [8]: 6.59E+06; Peptide signal (feature intensity) in the small intestine, 120 min [8]: 1.48E+07; Peptide signal (feature intensity) in the small intestine, 240 min [8]: 2.26E+07 |
